Reference: the supplement of paper PMC11616607

Legend:
Experiment in all cases: drug sensitivity score (DSS) from 5-point dose-response viability curve (DSS (area-under-curve based score)); higher = more sensitive (stronger growth inhibition or killing); extreme values may be limits of the assay
Details in all cases: exposure time: 72 h; concentration range: 5 concentrations over 10,000-fold range
OVCAR5 = test system: OVCAR5
In short: (§1)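 Ovarian cancer and normal ovarian cell lines were tested in 384-well plates. Drugs were acoustically dispensed (Echo 550) in DMSO or water at five concentrations spanning a 10,000-fold range, then 1,500 cells per well were added and incubated 3 days at 37°C, 5% CO2. Viability was read by CellTiter-Glo luminescence on a PHERAstar FS. Drug sensitivity score was derived per cell line and drug with Breeze software; higher means more sensitive, zero means no response.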

COV318 = test system: COV318
In short: as §1

JHOS2 = test system: JHOS2
In short: as §1

OVCAR4 = test system: OVCAR4
In short: as §1

CAOV3 = test system: CAOV3
In short: as §1

HOSE2C = test system: HOSE2C
In short: as §1

COV362 = test system: COV362
In short: as §1

OV90 = test system: OV90
In short: as §1

Ovsaho = test system: Ovsaho
In short: as §1

HOSE1C = test system: HOSE1C
In short: as §1

OVCAR8 = test system: OVCAR8
In short: as §1

Kuramochi = test system: Kuramochi
In short: as §1

| Structure (SMILES) | drug sensitivity score (OVCAR5) | drug sensitivity score (COV318) | drug sensitivity score (JHOS2) | drug sensitivity score (OVCAR4) | drug sensitivity score (CAOV3) | drug sensitivity score (HOSE2C) | drug sensitivity score (COV362) | drug sensitivity score (OV90) | drug sensitivity score (Ovsaho) | drug sensitivity score (HOSE1C) | drug sensitivity score (OVCAR8) | drug sensitivity score (Kuramochi) |
| --- | --- | --- | --- | --- | --- | --- | --- | --- | --- | --- | --- | --- |
| CCN(CC)CCNC(=O)c1c(C)[nH]c(/C=C2\C(=O)Nc3ccc(F)cc32)c1C [Sunitinib] | 0 | 0 | 0.1 | 0 | 0 | 0 | 0 | 0 | 0 | 0 | 0 | 0 |
| Nc1nc(OCc2cc(Br)cs2)c2[nH]cnc2n1 [Lomeguatrib] | 0 | 0.4 | 0 | 0 | 0 | 0 | 0 | 0 | 2.5 | 0 | 0 | 0.8 |
| C[C@H]1O[C@@H](O[C@H]2[C@@H](O)C[C@H](O[C@H]3[C@@H](O)C[C@H](O[C@H]4CC[C@@]5(C)[C@H](CC[C@@H]6[C@@H]5C[C@@H](O)[C@]5(C)[C@@H](C7=CC(=O)OC7)CC[C@]65O)C4)O[C@@H]3C)O[C@@H]2C)C[C@H](O)[C@@H]1O [Digoxin] | 7.5 | 11.9 | 10.9 | 9.6 | 6.2 | 9.5 | 10.8 | 7.2 | 7.1 | 11.1 | 11.2 | 8.5 |
| O=C(NOCCO)c1ccc2cncn2c1Nc1ccc(I)cc1F [GDC-0623] | 6.1 | 0 | 0.6 | 6.3 | 5 | 1.3 | 2.3 | 16.3 | 0.8 | 0 | 0.4 | 0.1 |
| COc1nc(N)nc2c1ncn2[C@@H]1O[C@H](CO)[C@@H](O)[C@@H]1O [Nelarabine] | 0 | 0 | 0 | 0 | 0 | 0 | 0 | 1.7 | 0 | 0 | 0 | 0 |
| Oc1nc(-c2ccc(C(F)(F)F)cc2)nc2c1CSCC2 [XAV-939] | 0 | 0 | 0.1 | 3.6 | 0 | 0 | 0 | 0 | 2.3 | 0 | 0 | 1.5 |
| CC(C)c1cc(-c2n[nH]c(=O)n2-c2ccc3c(ccn3C)c2)c(O)cc1O [Ganetespib] | 13.6 | 10.3 | 18 | 11.3 | 16.2 | 26.1 | 12.7 | 15.3 | 5 | 22.9 | 17 | 11.9 |
| COc1cc2ncnc(Nc3cccc(Cl)c3F)c2cc1OC(=O)N1CCN(C)C[C@H]1C [AZD3759] | 0.2 | 0 | 0.2 | 0 | 3.5 | 0 | 0 | 0 | 0 | 0 | 0 | 0 |
| Oc1ccc2c(c1)CC[C@H](c1ccccc1)[C@@H]2c1ccc(OCCN2CCCC2)cc1 [Lasofoxifene] | 0 | 0 | 0 | 0 | 0 | 0 | 0 | 0 | 0 | 0 | 0 | 0.3 |
| C[C@@H]1COC(Nc2ccc3ncnc(Nc4ccc(OCc5nccs5)c(Cl)c4)c3c2)=N1 [Varlitinib] | 4.1 | 0 | 0 | 1.9 | 3.2 | 0.2 | 0 | 0 | 0.3 | 0.4 | 5.4 | 0.4 |
| CCNC(=O)C[C@@H]1N=C(c2ccc(Cl)cc2)c2cc(OC)ccc2-n2c(C)nnc21 [Molibresib] | 7.8 | 3.3 | 4.1 | 4.3 | 8.4 | 10 | 2.3 | 8.4 | 9.3 | 9.8 | 5.7 | 9.3 |
| O=C(O)CC[C@H]1CC[C@@](c2cc(F)ccc2F)(S(=O)(=O)c2ccc(Cl)cc2)CC1 [MK-0752] | 0.9 | 0 | 0 | 0 | 0 | 0 | 0 | 0.2 | 0 | 0 | 0 | 0 |
| CC(C)Nc1cc(-c2c[nH]c(C(=O)N[C@H](CO)c3cccc(Cl)c3)c2)c(Cl)cn1 [Ulixertinib] | 7.8 | 0.9 | 3.8 | 1.1 | 8 | 2.2 | 1.9 | 14 | 11.5 | 0 | 3.6 | 7.7 |
| Cc1ncc(Cl)cc1NCc1ccc(C(=O)N[C@@H](CC2CCCC2)C(=O)NC2CC2)s1 | 0 | 0 | 0 | 0 | 0 | 0 | 0 | 0.1 | 0 | 0 | 0 | 0.4 |
| CC/C(=C(\c1ccc(O)cc1)c1ccc(OCCN(C)C)cc1)c1ccccc1 [4-hydroxytamoxifen] | 5.9 | 5.5 | 2.8 | 2.1 | 0.2 | 3 | 2 | 6 | 3.9 | 2.7 | 2.6 | 4.2 |
| O=C1c2c(O)ccc(O)c2C(=O)c2c(NCCNCCO)ccc(NCCNCCO)c21 [Mitoxantrone] | 6.1 | 3.9 | 6.2 | 4.2 | 13 | 12.8 | 4 | 5.9 | 6.5 | 12.5 | 9.2 | 3.2 |
| Cn1cc(C2=Nc3cc(NC(=O)C(N)C4CCCCC4)cc4c3C2=CNNC4=O)cn1 (stereo not given) | 6.4 | 6.2 | 5.1 | 15.4 | 11 | 18.3 | 5.2 | 11.6 | 6.8 | 13.5 | 14.7 | 7.3 |
| CC(=O)[C@]1(O)Cc2c(O)c3c(c(O)c2[C@@H](O[C@H]2C[C@H](N)[C@H](O)[C@H](C)O2)C1)C(=O)c1ccccc1C3=O [Idarubicin] | 7.7 | 6.1 | 7.1 | 6.3 | 12 | 13.7 | 4.8 | 10.7 | 11.7 | 14.2 | 10.3 | 5.1 |
| CN(C(=O)c1ccc(F)cc1C(F)(F)F)C1CCN(c2nnc(-c3ccnn3C)c3ccccc23)CC1 [Taladegib] | 0.2 | 0.1 | 0 | 0 | 0 | 0 | 0 | 0 | 0 | 0 | 0 | 0 |
| CCN1C(=O)CNc2ncc(-c3ccc(-c4nc[nH]n4)nc3C)nc21 [CC-115] | 7.4 | 5.6 | 7.5 | 9.3 | 8 | 9.2 | 2.4 | 10.4 | 11.2 | 12 | 8.5 | 7.3 |
| O=c1ncn2nc(Sc3ccc(F)cc3F)ccc2c1-c1c(Cl)cccc1Cl [Neflamapimod] | 0.8 | 0.8 | 0 | 0.4 | 0 | 0 | 0 | 0.4 | 0 | 0.1 | 0.9 | 2 |
| O=C(Nc1nc2cccc(-c3ccc(CN4CCS(=O)(=O)CC4)cc3)n2n1)C1CC1 [Filgotinib] | 1.8 | 3.4 | 1.1 | 2.6 | 2.3 | 0 | 0.2 | 3.2 | 2.5 | 0.1 | 2.5 | 5.1 |
| Cc1cc(-c2nc(-c3ccc(OC(F)(F)F)cc3)no2)nn1Cc1ccnc(N2CCN(C3CC3)CC2)c1 [BAY 87-2243] | 4.8 | 2.7 | 0 | 4.7 | 8.4 | 0 | 0 | 23.3 | 1.6 | 0 | 28.8 | 2.7 |
| C[C@]1(c2nc3c(C(N)=O)cccc3[nH]2)CCCN1 [Veliparib] | 1.3 | 0 | 0 | 0 | 0 | 0 | 0 | 0.7 | 0.4 | 0 | 0.2 | 0 |
| Cc1cc2c(C(=O)NC[C@H](C)c3ccccc3)c(O)c(O)cc2c(O)c1-c1c(C)cc2c(C(=O)NC[C@H](C)c3ccccc3)c(O)c(O)cc2c1O [Sabutoclax] | 10.8 | 8.8 | 8.1 | 8.3 | 15.4 | 16.1 | 9 | 11.2 | 8.2 | 18 | 15.9 | 6.7 |
| O=C(CCCCCCNC(=O)c1cnc(N(c2ccccc2)c2ccccc2)nc1)NO [Rocilinostat] | 6.9 | 2.7 | 1.6 | 1.4 | 5.2 | 5.7 | 0 | 6 | 1.9 | 9.3 | 7.1 | 3.3 |
| CC[C@H](C)C(=O)O[C@H]1C[C@H](O)C=C2C=C[C@H](C)[C@H](CC[C@@H](O)C[C@@H](O)CC(=O)O)[C@H]21 [Pravastatin] | 0 | 0 | 0 | 0 | 0 | 0 | 0 | 0 | 0 | 0 | 0 | 0 |
| CCN(c1cc(-c2ccc(CN3CCOCC3)cc2)cc(C(=O)NCc2c(C)cc(C)[nH]c2=O)c1C)C1CCOCC1 [Tazemetostat] | 0 | 0 | 2.1 | 0.1 | 0 | 0 | 2.3 | 0 | 0 | 0 | 0 | 0 |
| Cn1ncc(Cl)c1-c1cc(C(=O)N[C@H](CN)Cc2cccc(F)c2)sc1Cl [Afuresertib] | 1.2 | 1.8 | 0 | 0.5 | 0.8 | 2.8 | 0 | 0.9 | 1.5 | 2.9 | 0.5 | 4 |
| CC[C@]1(O)C[C@H]2CN(CCc3c([nH]c4ccccc34)[C@@](C(=O)OC)(c3cc4c(cc3OC)N(C=O)[C@H]3[C@@](O)(C(=O)OC)[C@H](OC(C)=O)[C@]5(CC)C=CCN6CC[C@]43[C@@H]65)C2)C1 [Vincristine] | 4.5 | 1.9 | 2.7 | 6.6 | 21.3 | 17.7 | 3.3 | 16.9 | 5.9 | 16.3 | 8.9 | 3.1 |
